Key:
[1] = system: INFα induced pSTAT5 in human PBMC; assay: INFα induced pSTAT5 in human PBMC; assay type: cell-based; conditions: human PBMC, INFα 5000 units/ml; read-out: p-STAT5 IC50
[2] = Pharmacokinetic study in Sprague Dawley rats; assay type: in vivo; conditions: rat, plasma; for Vd: read-out: Vdss
Procedure: (§1) The pharmacokinetics of test compounds were evaluated in male C57BL/6 mice, Sprague Dawley rats, Beagle dogs, and cynomolgus monkeys when administered via oral gavage and IV injection. The animals were fasted overnight before administration. Plasma samples were collected predose and at 0.5, 1, 3, 6, 9, 12, and 24 hours postdose. The samples were analyzed by LC/MS/MS and the concentration of test compound at each timepoint was determined by linear regression. Pharmacokinetic parameters were calculated from the plasma concentrations using Pheonix WinNonlin.

[3] = system: IL-2-induced pSTAT5 in human PBMC; assay: IL-2-induced pSTAT5 in human PBMC; assay type: cell-based; conditions: IL-2 20 ng/ml
Procedure: (§2) Fresh Human PBMCs were resuspended in RPMI 1640 medium with 10% FBS. Cells were seeded in a round bottom 96-well plate at the concentration of 200,000 cells/well. A 10-point dilution series of test compound (top dose 10 uM, 1:5 dilution) was added to the well using the liquid dispenser (Tecan D300e) and incubated for 1 hour at 37 C. Then human IL-12 recombinant protein (R&D Systems) was added to the well at the final concentration of 10 ng/ml and incubated for 15 minutes at 37 C. Cell lysates were prepared and analyzed by Phospho STAT4 (Tyr693) Kit (Meso Scale Discovery) following manufacturer's protocol.
(§3) For calculation of the inhibition rate, the relative pSTAT4 signal of each well=pSTAT4 signal of each well−the average pSTAT4 signal of baseline. The inhibition %=(the average pSTAT4 signal of IL-12 treatment wells−the relative of pSTAT4 signal in each compound containing well)/the average pSTAT4 signal of IL-12 treatment wells*100%
(§4) The curve was plotted as the inhibition % (y-axis) vs. compounds concentration (x-axis) and was fitted with log(inhibitor) vs. normalized response—Variable slope by GraphPad Prism7.0. Control is BMS-986165:
(§5) Similar to the method for IL-12 induced pSTAT4 in human PBMC described above, these assays were performed to check if test compounds have cross-activity to JAK1. JAK2 and JAK3 pathways in human PBMC. The procedure is as described with change of stimuli to 10 ng/ml of GM-CSF or 20 ng/ml of IL-2.

[4] = Pharmacokinetic study in cynomolgus monkeys; assay type: in vivo; conditions: cynomolgus monkey, plasma; for Vd: read-out: Vdss
Procedure: as §1

[5] = Pharmacokinetic study in C57BL/6 mice; assay type: in vivo; conditions: male, mouse, plasma
Procedure: as §1

[6] = Pharmacokinetic study in Beagle dogs; assay type: in vivo; conditions: dog, plasma; for Vd: read-out: Vdss
Procedure: as §1

[7] = system: GM-CSF-induced pSTAT5 in human PBMC; assay: GM-CSF-induced pSTAT5 in human PBMC; assay type: cell-based; conditions: GM-CSF 10 ng/ml
Procedure: as §2, §3, §4, §5

[8] = target: JAK2 (JH1 domain) (Homo sapiens (Human), UniProt O60674); assay: JAK2 JH1 domain binding assay (KINOMEscan)
JAK2 (JH1 domain), sequence (O60674 849-1124): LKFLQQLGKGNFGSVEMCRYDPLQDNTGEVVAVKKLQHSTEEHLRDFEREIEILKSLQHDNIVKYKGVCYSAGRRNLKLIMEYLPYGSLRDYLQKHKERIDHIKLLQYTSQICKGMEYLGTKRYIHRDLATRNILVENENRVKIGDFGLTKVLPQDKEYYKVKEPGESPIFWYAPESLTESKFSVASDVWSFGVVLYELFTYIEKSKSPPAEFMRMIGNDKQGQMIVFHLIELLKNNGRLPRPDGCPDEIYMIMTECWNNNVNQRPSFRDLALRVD
Procedure: (§6) The assay is performed by combining three components: DNA-tagged kinase; immobilized ligand; and a test compound. The ability of the test compound to compete with the immobilized ligand is measured via quantitative PCR of the DNA tag.
(§7) The liganded beads were blocked with excess biotin and washed with blocking buffer (SeaBlock (Pierce), 1% BSA, 0.05% Tween 20, 1 mM DTT) to remove unbound ligand and to reduce non-specific binding. […] Test compounds were prepared as 111× stocks in 100% DMSO. All test compounds were shipped to DiscoverX in DMSO with concentration of 10 mM. Kds were determined using an 11-point 3-fold compound dilution series with three DMSO control points. Each compound was tested in duplicate. […] The compounds were then diluted directly into the assays such that the final concentration of DMSO was 0.9%. All reactions performed in polypropylene 384-well plate. Each was a final volume of 0.02 ml. […] The kinase concentration in the eluates was measured by qPCR.
(§8) The amount of kinase measured by qPCR (Signal; y-axis) is plotted against the corresponding compound concentration in nM in log 10 scale (x-axis). Binding constants (Kds) were calculated with a standard dose-response curve using the Hill equation:
(§9) Similar to the method for TYK2 JH2 binding described above, JAK1 JH2 and JAK2 JH1 domain binding assay was performed using DiscoverX's KINOMEscan™, but with change of kinase domain.

[9] = target: JAK1 (JH2 domain) (Homo sapiens (Human), UniProt P23458); assay: JAK1 JH2 domain binding assay (KINOMEscan); conditions: KINOMEscan; read-out: JAK1 (JH2 domain) binding Kd
JAK1 (JH2 domain), sequence (P23458 583-855): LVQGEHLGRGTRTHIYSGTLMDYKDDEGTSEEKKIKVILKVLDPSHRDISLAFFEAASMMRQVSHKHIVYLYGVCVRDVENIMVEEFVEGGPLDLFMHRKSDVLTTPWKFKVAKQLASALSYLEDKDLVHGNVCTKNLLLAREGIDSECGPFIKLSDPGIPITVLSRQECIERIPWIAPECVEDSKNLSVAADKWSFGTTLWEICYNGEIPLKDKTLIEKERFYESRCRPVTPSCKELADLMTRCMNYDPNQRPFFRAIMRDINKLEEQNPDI
Procedure: as §6, §7, §8, §9

[10] = target: TYK2 (JH2 domain) (Homo sapiens (Human), UniProt P29597); assay: TYK2 JH2 domain binding assay (DiscoverX KINOMEscan); conditions: 11-point 3-fold dilution, duplicate
TYK2 (JH2 domain), sequence (P29597 589-875): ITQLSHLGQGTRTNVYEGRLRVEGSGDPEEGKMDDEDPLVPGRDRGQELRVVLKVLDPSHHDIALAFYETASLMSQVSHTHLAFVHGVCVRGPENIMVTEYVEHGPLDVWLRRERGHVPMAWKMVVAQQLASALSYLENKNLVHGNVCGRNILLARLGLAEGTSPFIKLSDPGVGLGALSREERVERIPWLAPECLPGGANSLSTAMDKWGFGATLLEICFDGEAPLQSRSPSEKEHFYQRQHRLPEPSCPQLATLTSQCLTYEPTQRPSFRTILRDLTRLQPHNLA

[11] = Oral (5 mg/kg), read-out: C0 or Cmax (Cmax)
[12] = iv, I.V. (1 mg/kg), read-out: C0 or Cmax (C0)
[13] = Oral (2 mg/kg), NA: no detectable
[14] = Oral (2 mg/kg), NA: no detectable, read-out: C0 or Cmax (Cmax)
[15] = Oral (2 mg/kg), read-out: C0 or Cmax (Cmax)

In the case of [2H]C([2H])([2H])CC(=O)c1cnc(NC(=O)C2CC2)cc1Nc1cccc(-c2ncn(C([2H])([2H])[2H])n2)c1OC [Example 195], the IC50 [1] is reported as < 100 nM, the AUC ([2]; Oral (5 mg/kg)) is reported as 7440 ± 1400 ng·h/mL and the Tmax ([2]; Oral (5 mg/kg)) is reported as 1.67 ± 0.58 h. For the same molecule, the bioavailability ([2]; Oral (5 mg/kg)) was 46.7 ± 8.8%, the half-life ([2]; Oral (5 mg/kg)) was 2.37 ± 0.32 h and the Cmax [2, 11] was 1260 ± 226 ng/mL. The AUC ([2]; iv, I.V. (1 mg/kg)) was 3190 ± 603 ng·h/mL, the clearance ([2]; iv, I.V. (1 mg/kg)) was 4.96 ± 0.91 mL/min/kg and the half-life ([2]; iv, I.V. (1 mg/kg)) was 2.14 ± 0.12 h. For the same molecule, the Cmax [2, 12] was 2150 ± 123 ng/mL, the Vd ([2]; iv, I.V. (1 mg/kg)) was 0.824 ± 0.11 L/kg and the IC50 [3] was 1000 to 10000 nM. For the same molecule, the AUC [4, 13] was 5420 ± 3250 ng·h/mL, the Tmax [4, 13] was 4 h and the bioavailability [4, 13] was 16.6 ± 9.95%. The half-life [4, 13] was 5.8 ± 0.73 h, the Cmax [4, 14] was 663 ± 497 ng/mL and the AUC ([4]; iv, I.V. (1 mg/kg)) was 16300 ± 664 ng·h/mL. For the same molecule, the clearance ([4]; iv, I.V. (1 mg/kg)) was 0.898 ± 0.04 mL/min/kg, the half-life ([4]; iv, I.V. (1 mg/kg)) was 7.65 ± 0.56 h and the Cmax [4, 12] was 1290 ± 106 ng/mL. For the same molecule, the Vd ([4]; iv, I.V. (1 mg/kg)) was 0.624 ± 0.03 L/kg, the Tmax ([5]; Oral (10 mg/kg)) was 0.5 h and the bioavailability ([5]; Oral (10 mg/kg)) was 41.7%. The half-life ([5]; Oral (10 mg/kg)) was 2.11 h, the Cmax ([5]; Oral (10 mg/kg), read-out: C0 or Cmax (Cmax)) was 4300 ng/mL and the clearance ([5]; iv, I.V. (2 mg/kg)) was 4.16 mL/min/kg. It also gave a half-life ([5]; iv, I.V. (2 mg/kg)) of 2.46 h, a Cmax ([5]; iv, I.V. (2 mg/kg), read-out: C0 or Cmax (C0)) of 2950 ng/mL and a Vd ([5]; iv, I.V. (2 mg/kg), read-out: Vdss) of 0.688 L/kg. For the same molecule, the AUC ([6]; Oral (2 mg/kg)) was 1520 ± 1330 ng·h/mL, the Tmax ([6]; Oral (2 mg/kg)) was 1.33 ± 0.58 h and the bioavailability ([6]; Oral (2 mg/kg)) was 26.2 ± 23%. For the same molecule, the half-life ([6]; Oral (2 mg/kg)) was 5.73 ± 2.02 h, the Cmax [6, 15] was 285 ± 285 ng/mL and the AUC ([6]; iv, I.V. (1 mg/kg)) was 2900 ± 453 ng·h/mL. It also gave a clearance ([6]; iv, I.V. (1 mg/kg)) of 5.31 ± 0.93 mL/min/kg, a half-life ([6]; iv, I.V. (1 mg/kg)) of 6.69 ± 0.39 h and a Cmax [6, 12] of 185 ± 8.4 ng/mL. The Vd ([6]; iv, I.V. (1 mg/kg)) was 3.04 ± 0.27 L/kg and the IC50 [7] was 1000 to 10000 nM.

With [2H]C([2H])([2H])CC(=O)c1cnc(Nc2cccc(C#N)n2)cc1Nc1cccc(-c2ncn(C([2H])([2H])[2H])n2)c1OC [Example 198] the IC50 [1] was < 100 nM, the Kd [8] was > 10000 nM and the AUC ([2]; Oral (5 mg/kg)) was 1190 ± 53 ng·h/mL. For the same molecule, the Tmax ([2]; Oral (5 mg/kg)) was 1 ± 0.87 h, the bioavailability ([2]; Oral (5 mg/kg)) was 16.9 ± 0.76% and the half-life ([2]; Oral (5 mg/kg)) was 2.85 ± 2.8 h. For the same molecule, the Cmax [2, 11] was 261 ± 35 ng/mL, the AUC ([2]; iv, I.V. (1 mg/kg)) was 1400 ± 29 ng·h/mL and the clearance ([2]; iv, I.V. (1 mg/kg)) was 11.8 ± 0.22 mL/min/kg. For the same molecule, the half-life ([2]; iv, I.V. (1 mg/kg)) was 1.22 ± 0.12 h, the Cmax [2, 12] was 1200 ± 70 ng/mL and the Vd ([2]; iv, I.V. (1 mg/kg)) was 1.1 ± 0.065 L/kg. For the same molecule, the IC50 [3] was 100 to 1000 nM, the Kd [9] was < 100 nM and the AUC [4, 13] was 1230 ± 435 ng·h/mL. For the same molecule, the Tmax [4, 13] was 4 h, the bioavailability [4, 13] was 59.4 ± 21.1% and the half-life [4, 13] was 1.28 ± 0.18 h. For the same molecule, the Cmax [4, 14] was 246 ± 124 ng/mL, the AUC ([4]; iv, I.V. (1 mg/kg)) was 1030 ± 159 ng·h/mL and the clearance ([4]; iv, I.V. (1 mg/kg)) was 16.1 ± 2.4 mL/min/kg. For the same molecule, the half-life ([4]; iv, I.V. (1 mg/kg)) was 1.45 ± 0.22 h, the Cmax [4, 12] was 667 ± 82 ng/mL and the Vd ([4]; iv, I.V. (1 mg/kg)) was 1.94 ± 0.03 L/kg. For the same molecule, the Kd [10] was ≤ 1 nM, the AUC ([6]; Oral (2 mg/kg)) was 253 ± 48 ng·h/mL and the Tmax ([6]; Oral (2 mg/kg)) was 1.67 ± 0.58 h. It also gave a bioavailability ([6]; Oral (2 mg/kg)) of 54 ± 10%, a half-life ([6]; Oral (2 mg/kg)) of 1.42 ± 0.24 h and a Cmax [6, 15] of 68.8 ± 18 ng/mL. For the same molecule, the AUC ([6]; iv, I.V. (1 mg/kg)) was 234 ± 94 ng·h/mL, the clearance ([6]; iv, I.V. (1 mg/kg)) was 68.6 ± 28 mL/min/kg and the half-life ([6]; iv, I.V. (1 mg/kg)) was 4.29 ± 1.25 h. The Cmax [6, 12] was 182 ± 47.6 ng/mL, the Vd ([6]; iv, I.V. (1 mg/kg)) was 23.1 ± 4.59 L/kg and the IC50 [7] was 1000 to 10000 nM.

In the case of [2H]C([2H])([2H])CC(=O)c1cnc(Nc2cccc(C#N)n2)cc1Nc1nccc(-c2ncn(C([2H])([2H])[2H])n2)c1OC [Example 199], the IC50 [1] is reported as < 100 nM, the Kd [8] is reported as > 10000 nM and the AUC ([2]; Oral (5 mg/kg)) is reported as 650 ± 34 ng·h/mL. For the same molecule, the Tmax ([2]; Oral (5 mg/kg)) was 1.33 ± 0.58 h, the bioavailability ([2]; Oral (5 mg/kg)) was 18.4 ± 1% and the half-life ([2]; Oral (5 mg/kg)) was 1.66 ± 0.37 h. The Cmax [2, 11] was 140 ± 32 ng/mL, the AUC ([2]; iv, I.V. (1 mg/kg)) was 705 ± 140 ng·h/mL and the clearance ([2]; iv, I.V. (1 mg/kg)) was 23.3 ± 4.9 mL/min/kg. It also gave a half-life ([2]; iv, I.V. (1 mg/kg)) of 1.74 ± 0.2 h, a Cmax [2, 12] of 414 ± 56 ng/mL and a Vd ([2]; iv, I.V. (1 mg/kg)) of 3.27 ± 0.87 L/kg. The IC50 [3] was 100 to 1000 nM, the Kd [9] was < 100 nM and the Kd [10] was ≤ 1 nM. The AUC ([6]; Oral (2 mg/kg)) was 67.6 ± 25 ng·h/mL, the Tmax ([6]; Oral (2 mg/kg)) was 1.33 ± 0.6 h and the bioavailability ([6]; Oral (2 mg/kg)) was 10.7 ± 3.9%. For the same molecule, the half-life ([6]; Oral (2 mg/kg)) was 1.36 ± 0.05 h, the Cmax [6, 15] was 23.4 ± 4 ng/mL and the AUC ([6]; iv, I.V. (1 mg/kg)) was 315 ± 188 ng·h/mL. For the same molecule, the clearance ([6]; iv, I.V. (1 mg/kg)) was 63.2 ± 30 mL/min/kg, the half-life ([6]; iv, I.V. (1 mg/kg)) was 1.78 ± 0.59 h and the Cmax [6, 12] was 334 ± 96 ng/mL. It also gave a Vd ([6]; iv, I.V. (1 mg/kg)) of 5.62 ± 1.13 L/kg and an IC50 [7] of 1000 to 10000 nM.
